# Reference: ChEMBL document CHEMBL1143411, “Concentration-effect relationship of ceftazidime explains why the time above the MIC is 40 percent for a static effect in vivo” (Antimicrob Agents Chemother, 2007)
# Assays:
# [1] = Elimination rate constant in human; type: ADME, organism-based; settings: in vivo
# Pseudomonas aeruginosa [2] = experiment: Antibacterial activity against Pseudomonas aeruginosa ATCC 27853 assessed as maximum bacterial kill rate by time-kill study; type: functional
# Mus musculus [3] = experiment: %fT>MIC in mouse at 35.6 mg/kg administered every 6 hrs; type: ADME, organism-based; design: dose 35.6 mg/kg; settings: in vivo
# Homo sapiens [4] = experiment: %fT>MIC in human at 38.9 mg/kg administered every 6 hrs; type: ADME, organism-based; design: dose 38.9 mg/kg; settings: in vivo
# [5] = Volume of distribution in mouse; type: ADME, organism-based; settings: in vivo, read-out: Vc
# [6] = Elimination rate constant in mouse; type: ADME, organism-based; settings: in vivo
# Homo sapiens [7] = experiment: %fT>MIC in human at 20.2 mg/kg administered every 4 hrs; type: ADME, organism-based; design: dose 20.2 mg/kg; settings: in vivo
# Mus musculus [8] = experiment: %fT>MIC in mouse at 9.29 mg/kg administered every 4 hrs; type: ADME, organism-based; design: dose 9.29 mg/kg; settings: in vivo
# Mus musculus [9] = experiment: %fT>MIC in mouse at 4.60 mg/kg administered every 3 hrs; type: ADME, organism-based; design: dose 4.6 mg/kg; settings: in vivo, 4.6 mg/kg
# [10] = Volume of distribution in human; type: ADME, organism-based; settings: in vivo, read-out: Vc
# Homo sapiens [11] = experiment: %fT>MIC in human at 121 mg/kg administered every 12 hrs; type: ADME, organism-based; design: dose 121 mg/kg; settings: in vivo
# Mus musculus [12] = experiment: %fT>MIC in mouse at 2.12 mg/kg administered every 2 hrs; type: ADME, organism-based; design: dose 2.12 mg/kg; settings: in vivo
# Homo sapiens [13] = experiment: %fT>MIC in human at 59.8 mg/kg administered every 8 hrs; type: ADME, organism-based; design: dose 59.8 mg/kg; settings: in vivo
# Pseudomonas aeruginosa [14] = experiment: Antibacterial activity against Pseudomonas aeruginosa ATCC 27853 assessed as bacterial growth rate by time-kill study; type: functional
# Mus musculus [15] = experiment: %fT>MIC in mouse at 129.7 mg/kg administered every 8 hrs; type: ADME, organism-based; design: dose 129.7 mg/kg; settings: in vivo
# Pseudomonas aeruginosa [16] = experiment: Antibacterial activity against Pseudomonas aeruginosa ATCC 27853 by microdilution method; type: functional, organism-based
compound,measurement,setting,value
CC(C)(O/N=C(\C(=O)N[C@@H]1C(=O)N2C(C(=O)[O-])=C(C[n+]3ccccc3)CS[C@H]12)c1csc(N)n1)C(=O)O [CEFTAZIDIME],k el,[1],0.000128 s⁻¹
same,Activity,Pseudomonas aeruginosa [2],4.15 h⁻¹
same,fT>MIC,Mus musculus [3],36.5%
same,fT>MIC,Homo sapiens [4],36.3%
same,Vd,[5],0.5 L/kg
same,k el,[6],0.000544 s⁻¹
same,fT>MIC,Homo sapiens [7],23.7%
same,fT>MIC,Mus musculus [8],37.6%
same,fT>MIC,Mus musculus [9],38.1%
same,Vd,[10],1.4 L
same,fT>MIC,Homo sapiens [11],37.7%
same,fT>MIC,Mus musculus [12],37.3%
same,fT>MIC,Homo sapiens [13],37.9%
same,Activity,Pseudomonas aeruginosa [14],-1.41 h⁻¹
same,fT>MIC,Mus musculus [15],35.7%
same,EC50,Pseudomonas aeruginosa [16],1.22 µg/mL
